From the CombiSolv-Exp solvation set (Vermeire and Green 2021)

Experiment: solvent given as SMILES

S
Settings	solvation free energy, 298 K [kcal/mol]
in Brc1ccccc1	-1.3
in C1CCC2CCCCC2C1	-0.99
in CC1COC(=O)O1	-1.49
in CC(=O)N(C)C	-2.25
in CC(C)=O	-1.9
in CCCCCCCCCCCCCCCC	-0.88
in CN1CCCC1=O	-2.2
in CN(C)C=O	-2.2
in CN(C)P(=O)(N(C)C)N(C)C	-2.64
in CO	-1.72
in COC(=O)CC#N	-1.35
in COCCOCCO	-1.91
in COCCOCCOC	-1.96
in COCCOCCOCCOC	-1.84
in COCCOCCOCCOCCOC	-1.97
in CS(C)=O	-2.04
in Clc1ccccc1	-1.5
in Nc1ccccc1	-1.7
in O	-0.65
in O=CN1CCOCC1	-1.81
in OCCCOCCCO	-1.24
in OCCO	-1.17
in OCCOCCO	-1.34
in OCCOCCOCCO	-1.32
in OCc1ccccc1	-1.35

CCCO
Settings	solvation free energy, 298 K [kcal/mol]
in Brc1ccccc1	-3.66
in C1CCOC1	-5.22
in C1COCCO1	-4.52
in C=CCCCCCCCCCCCCCC	-2.96
in CC#N	-4.84
in CC(C)(C)O	-5.55
in CC(C)CC(C)(C)C	-3
in CC(C)CCCC(C)CCCC(C)CCCCC(C)CCCC(C)CCCC(C)C	-2.6
in CC(C)CO	-5.44
in CC(C)O	-5.53
in CC(C)OC(C)C	-4.39
in CCC1CO1	-5.09
in CCC(C)=O	-4.97
in CCCC(C)O	-5.34
in CCCCC(CC)COC(=O)CCCCC(=O)OCC(CC)CCCC	-4.07
in CCCCCC	-2.99
in CCCCCCC	-2.97
in CCCCCCCC	-2.91
in CCCCCCCCC=CCCCCCCCC(=O)OCC(COC(=O)CCCCCCCC=CCCCCCCCC)OC(=O)CCCCCCCC=CCCCCCCCC	-3.96
in CCCCCCCCCC	-2.76
in CCCCCCCCCCCCCCCC	-2.7
in CCCCCCCCCCO	-4.8
in CCCCCCCCO	-5.02
in CCCCCO	-5.43
in CCCCO	-5.22
in CCCCOC(C)=O	-4.65
in CCCOCCC	-4.2
in CCO	-5.69
in CCOC(=O)c1ccccc1C(=O)OCC	-4.09
in CCOCCO	-5.33
in CCOP(=O)(OCC)OCC	-5.39
in CN1CCCC1=O	-5.69
in CN1CCN(C)C1=O	-5.51
in CN(C)C=O	-5.57
in CO	-5.92
in COC(C)(C)C	-4.6
in COC(C)=O	-4.88
in Cc1ccc(C)cc1	-3.73
in Cc1cccc(C)c1	-3.72
in ClC(Cl)(Cl)Cl	-3.53
in Clc1ccccc1	-3.83
in FC(F)(F)C(F)(F)C(F)(F)C(F)(F)C(F)(F)C(F)(F)C(F)(F)F	-1.69
in FC(F)(F)C(F)(F)C(F)(F)C(F)(F)C(F)(F)C(F)(F)F	-1.74
in NC=O	-4.84
in O	-4.88
in O=CN1CCOCC1	-5.02
in OCC(O)CO	-4.37
in OCCOCCO	-5.2
in [2H]O[2H]	-4.95
in c1ccccc1	-3.97

CCCCOC(=O)c1ccccc1C(=O)OCc1ccccc1
Settings	solvation free energy, 298 K [kcal/mol]
in O	-9.55

CCCOC(=O)c1ccccc1C(=O)OCCC
Settings	solvation free energy, 298 K [kcal/mol]
in O	-7.56

O=Nc1ccc2ccccc2c1O
Settings	solvation free energy, 298 K [kcal/mol]
in O	-8.79

CC[N+](=O)[O-]
Settings	solvation free energy, 298 K [kcal/mol]
in C=CCCCCCCCCCCCCCC	-3.33
in CCC(C)=O	-5.25
in CCCC(C)C	-4.09
in CCCCCCC	-3.34
in CCCCCCCC	-3.37
in CCCCCCCCCCCCCCCC	-3.17
in CCCCCCCCO	-3.93
in COC(C)=O	-5.46
in O	-3.72
in [2H]O[2H]	-3.75

CC12CCC(=O)C=C1CCC1C2C(O)CC2(C)C1CCC2(O)C(=O)C(O)C(CCCCC(N)=O)C(N)=O (configuration not stated)
Settings	solvation free energy, 298 K [kcal/mol]
in C=CCCCCCCC=C	-29.8
in C=CCCCCCCCCCCCCCC	-27.4
in O	-33.7

CC(=O)CC(=O)c1ccccc1
Settings	solvation free energy, 298 K [kcal/mol]
in CCCCCC	-7.72
in CCCCCCC	-7.87
in CCCCCCCC	-7.76
in CCCCCCCCCC	-7.76

COc1ccc(NS(=O)(=O)c2ccc(N)cc2)nn1
Settings	solvation free energy, 298 K [kcal/mol]
in O	-21.1

CC(=O)C(C)C(C)=O
Settings	solvation free energy, 298 K [kcal/mol]
in O	-4.75

O=C(O)c1cccc(C(=O)O)c1
Settings	solvation free energy, 298 K [kcal/mol]
in CC(C)O	-13.8
in CCC(C)O	-13.3
in CCCCCCO	-13.2
in CCCCO	-13.5
in CCCO	-13.6
in CCCOC(C)=O	-12.5
in CN1CCCC1=O	-15.5
in CO	-14.1
in O	-11.3

C=C(C)C(=C)C
Settings	solvation free energy, 298 K [kcal/mol]
in CN1CCCC1=O	-3.55
in CN(C)C=O	-3.53
in O	0.4
in OCCO	-1.73
in OCCOCCO	-2.47
in OCCOCCOCCO	-2.49

CC(C)COC(=O)C(C)C
Settings	solvation free energy, 298 K [kcal/mol]
in O	-1.69

CC1=CCC23CC1C(C)(C)C2CCC3C (configuration not stated)
Settings	solvation free energy, 298 K [kcal/mol]
in O	0.78

C=CCCCC=C
Settings	solvation free energy, 298 K [kcal/mol]
in CCCCOC(C)=O	-4.42
in CCOC(C)=O	-4.6
in O	1.16

O=C(O)c1ccccc1[N+](=O)[O-]
Settings	solvation free energy, 298 K [kcal/mol]
in CCCCCCCCO	-12.5

O=c1[nH]c(=O)[nH]c(=O)[nH]1
Settings	solvation free energy, 298 K [kcal/mol]
in O	-18.1

N#Cc1ccncc1
Settings	solvation free energy, 298 K [kcal/mol]
in O	-6.02

C=CCCC=C
Settings	solvation free energy, 298 K [kcal/mol]
in C=CCCCCCCCCCCCCCC	-3.36
in CCCCCCCCCCCCCCCC	-3.48
in CN1CCCC1=O	-3.23
in CS(C)=O	-2.74
in O	0.97

Fc1c(F)c(F)c(F)c(F)c1F
Settings	solvation free energy, 298 K [kcal/mol]
in C1CCOC1	-4.5
in C1COCCO1	-4.23
in CC(C)CC(C)(C)C	-3.53
in CC(C)OC(C)C	-4.13
in CCCCO	-3.46
in CCOCC	-4.35
in O	0.1

CNCCc1ccc(O)cc1
Settings	solvation free energy, 298 K [kcal/mol]
in C=CCCCCCCC=C	-9.48
in O	-11.9

C=CCC(C)(C)C
Settings	solvation free energy, 298 K [kcal/mol]
in C=CCCCCCCCCCCCCCC	-3.59
in O	1.53

Cc1cccc(C(C)C)c1
Settings	solvation free energy, 298 K [kcal/mol]
in O	-0.72

CCCCCCC(C)=O
Settings	solvation free energy, 298 K [kcal/mol]
in C1COCCO1	-6.83
in CCCCCCC	-5.68
in CN(C)C=O	-6.23
in ClC(Cl)(Cl)Cl	-6.7
in NC=O	-5.06
in O	-2.92

CC(=O)CC(=O)C(C)(C)C
Settings	solvation free energy, 298 K [kcal/mol]
in O	-5.12

Cc1ccc(N)cc1
Settings	solvation free energy, 298 K [kcal/mol]
in CC(C)CC(C)(C)C	-6.29
in CCCCCC	-6.06
in CCCCCCC	-6.14
in CCCCCCCC	-6.29
in Cc1cccc(C)c1	-7.26
in Cc1ccccc1C	-7.27

O=C1c2ccccc2C(=O)c2c(Cl)cccc21
Settings	solvation free energy, 298 K [kcal/mol]
in C1CCOC1	-15
in CC(=O)N(C)C	-14.9
in CC(C)(C)O	-12.6
in CC(C)CC(C)(C)C	-12
in CC(C)CC(C)O	-12.7
in CC(C)CCO	-12.7
in CC(C)CO	-12.6
in CC(C)O	-12.6
in CCC(C)O	-12.7
in CCCC(C)CO	-12.8
in CCCC(C)O	-12.8
in CCCCCC	-12.2
in CCCCCCC	-12.3
in CCCCCCCC	-12.3
in CCCCCCCCCC	-12.4
in CCCCCCCCCCO	-13.1
in CCCCCCCCO	-13.1
in CCCCCCCO	-13.1
in CCCCCCO	-13.1
in CCCCCO	-12.9
in CCCCCOC(C)=O	-13.9
in CCCCO	-12.8
in CCCCOC(C)=O	-14
in CCCCOCCCC	-13.1
in CCCO	-12.8
in CCCOC(C)=O	-14.1
in CCOC(C)=O	-14.2
in CCOCC	-13.4
in CO	-12.7
in COC(C)(C)C	-13.4
in COC(C)=O	-14.3
in Fc1ccccc1	-14.6
in O	-8.23

[N-]=[N+]=O
Settings	solvation free energy, 298 K [kcal/mol]
in CC(C)=O	-1.05
in CC(C)CC(C)(C)C	-0.69
in CC(C)O	-0.48
in CCC(C)=O	-0.94
in CCCCCC	-0.74
in CCCCCCC	-0.65
in CCCCCCCC	-0.6
in CCCCCCCCCC	-0.49
in CCCCCCCCCCO	-0.55
in CCCCCCCCO	-0.45
in CCCCCCO	-0.49
in CCCCCO	-0.5
in CCCCO	-0.55
in CCCCOC(C)=O	-0.98
in CCCO	-0.59
in CCO	-0.61
in CO	-0.69
in COC(C)=O	-1.09
in ClC(Cl)(Cl)Cl	-0.86
in ClC(Cl)Cl	-0.97
in Clc1ccccc1	-0.68
in O	0.31

CC(C)N
Settings	solvation free energy, 298 K [kcal/mol]
in CCCCCC	-2.78

Cc1cc(C)nc(NS(=O)(=O)c2ccc(N)cc2)n1
Settings	solvation free energy, 298 K [kcal/mol]
in O	-20

ClCBr
Settings	solvation free energy, 298 K [kcal/mol]
in C1CCCCC1	-3.69
in ClC(Cl)(Cl)Cl	-3.93
in c1ccccc1	-4.32

CCc1ccc(CC)cc1
Settings	solvation free energy, 298 K [kcal/mol]
in CC(C)(C)O	-6.3

O=C1C=CC(=O)C=C1
Settings	solvation free energy, 298 K [kcal/mol]
in O	-6.5

Cc1ccccc1Cl
Settings	solvation free energy, 298 K [kcal/mol]
in O	-1.14

COc1ncnc(NS(=O)(=O)c2ccc(N)cc2)c1OC
Settings	solvation free energy, 298 K [kcal/mol]
in O	-19.6

CCCCC(O)CC (configuration not stated)
Settings	solvation free energy, 298 K [kcal/mol]
in O	-3.94

COC(C)=O
Settings	solvation free energy, 298 K [kcal/mol]
in C=CCCCCCCC=C	-3.23
in CC(=O)N(C)C	-3.82
in CC(C)=O	-4.12
in CC(C)CCCC(C)CCCC(C)CCCCC(C)CCCC(C)CCCC(C)C	-2.53
in CC(C)O	-3.36
in CCC1CO1	-4.01
in CCCCC(CC)COC(=O)CCCCC(=O)OCC(CC)CCCC	-3.19
in CCCCCC	-2.93
in CCCCCCC	-2.78
in CCCCCCCC	-2.88
in CCCCCCCCC=CCCCCCCCC(=O)OCC(COC(=O)CCCCCCCC=CCCCCCCCC)OC(=O)CCCCCCCC=CCCCCCCCC	-3.22
in CCCCCCCCCC	-2.8
in CCCCCCCCCCCCCCCC	-2.63
in CCCCCCCCO	-3.15
in CCCCN(C=O)CCCC	-3.48
in CCOC(=O)c1ccccc1C(=O)OCC	-3.48
in CCOCCO	-3.69
in CCOP(=O)(OCC)OCC	-3.75
in CN1CCCC1=O	-3.72
in CN1CCCCC1=O	-3.72
in CN1CCN(C)C1=O	-3.55
in CN(C)C=O	-3.9
in CNC(C)=O	-3.62
in CO	-3.96
in COP(=O)(OC)OC	-3.94
in CS(C)=O	-3.53
in NC=O	-3.27
in O	-3.14
in O=CN1CCOCC1	-3.58
in OCCOCCO	-3.32
in [2H]O[2H]	-3.17
in c1ccc2ncccc2c1	-3.51
